Consider two compounds from ChEMBL document CHEMBL2417497, “Lead identification of novel and selective TYK2 inhibitors” (Eur J Med Chem, 2013).

Series [1] in a line: physchem. To be noted: aqueous, pH 7.4.
Series [2] in a line: physchem. The conditions noted are these: octanol/aqueous phosphate buffered saline, pH 7.4.
Series [3] in a line: in vitro. The conditions noted are these: plasma.
Series [4] can be described thus: in vitro. The conditions noted are these: mouse, plasma.
A short description of series [5]: in vitro. To be noted: human, plasma.
Series [6] can be described thus: in vivo. The conditions noted are these: mouse, po, 5 mg/kg.
The nature of series [7]: in vitro. To be noted: rat, plasma.
Series [8] in a line: in vivo. The conditions noted are these: Sprague-Dawley, rat, po, 5 mg/kg.
Series [9] is described as follows: in vivo. To be noted: Sprague-Dawley, rat, po, 5 mg/kg. This is another data set of the same source.

The structures appear in SMILES notation. Values after ≈ are worked out from the molar mass of the structure shown.

The compound `O=C(Nc1ccncc1)c1c(Cl)cccc1Cl` registered a solubility in “physchem [1]” of 630 µg/mL (≈ 2360 µM). In the series “physchem [2]”, this compound showed a logD at 1 h of 2.2. In addition, the fraction unbound in the series “in vitro [3]” was 0.3.

For `O=C(Nc1ccnc(NC(=O)C2CC2)c1)c1c(Cl)cccc1Cl`, the unbound share (fraction unbound) is 0.04 in “in vitro [4]”, 0.05 in the series “in vitro [5]” and 0.04 in the series “in vitro [7]”. Also, the Cmax in the series “in vivo [6]” is 1600 nM; in the series “in vivo [8]”, 2500 nM. Besides, in “in vivo [9]”, the bioavailability stood at 105%.

By solubility is commonly meant the concentration that dissolves in the medium under given conditions. As a reminder, the logD is lipophilicity at a set pH, counting ionised and neutral species. Higher therefore signals a more lipophilic compound. What is called fraction unbound is free concentration divided by total concentration. What is called Cmax is the highest concentration seen after dosing.
